According to PMC10067855, “Sialidases and fucosidases of Akkermansia muciniphila are crucial for growth on mucin and nutrient sharing with mucus-associated gut bacteria” (Nature Communications, 2023):

Assays:
[1] = target: T1, AmGH33A (Akkermansia muciniphila, UniProt B2UPI5); test: inhibition of 4MU-Neu5Ac hydrolysis, fluorescence; assay type: biochemical
T1 construct: gene Amuc_0625; mature peptide lacking the signal peptide
T1 sequence (B2UPI5 39-419): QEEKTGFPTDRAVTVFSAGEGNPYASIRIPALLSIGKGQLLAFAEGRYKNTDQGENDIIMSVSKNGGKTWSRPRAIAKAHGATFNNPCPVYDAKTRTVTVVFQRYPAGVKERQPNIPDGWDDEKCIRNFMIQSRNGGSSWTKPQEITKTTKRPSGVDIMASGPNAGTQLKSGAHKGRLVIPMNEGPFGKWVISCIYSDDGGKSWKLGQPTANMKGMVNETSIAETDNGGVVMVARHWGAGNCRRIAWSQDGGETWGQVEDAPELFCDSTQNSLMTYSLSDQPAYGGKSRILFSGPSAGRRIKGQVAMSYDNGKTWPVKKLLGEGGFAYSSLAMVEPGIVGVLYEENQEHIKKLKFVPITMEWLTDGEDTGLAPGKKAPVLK

[2] = target: T2, AmGH33B (Akkermansia muciniphila, UniProt B2UN42); test: inhibition of 4MU-Neu5Ac hydrolysis, fluorescence; assay type: biochemical
T2 construct: gene Amuc_1835; mature peptide lacking the signal peptide
T2 sequence (B2UN42 19-674): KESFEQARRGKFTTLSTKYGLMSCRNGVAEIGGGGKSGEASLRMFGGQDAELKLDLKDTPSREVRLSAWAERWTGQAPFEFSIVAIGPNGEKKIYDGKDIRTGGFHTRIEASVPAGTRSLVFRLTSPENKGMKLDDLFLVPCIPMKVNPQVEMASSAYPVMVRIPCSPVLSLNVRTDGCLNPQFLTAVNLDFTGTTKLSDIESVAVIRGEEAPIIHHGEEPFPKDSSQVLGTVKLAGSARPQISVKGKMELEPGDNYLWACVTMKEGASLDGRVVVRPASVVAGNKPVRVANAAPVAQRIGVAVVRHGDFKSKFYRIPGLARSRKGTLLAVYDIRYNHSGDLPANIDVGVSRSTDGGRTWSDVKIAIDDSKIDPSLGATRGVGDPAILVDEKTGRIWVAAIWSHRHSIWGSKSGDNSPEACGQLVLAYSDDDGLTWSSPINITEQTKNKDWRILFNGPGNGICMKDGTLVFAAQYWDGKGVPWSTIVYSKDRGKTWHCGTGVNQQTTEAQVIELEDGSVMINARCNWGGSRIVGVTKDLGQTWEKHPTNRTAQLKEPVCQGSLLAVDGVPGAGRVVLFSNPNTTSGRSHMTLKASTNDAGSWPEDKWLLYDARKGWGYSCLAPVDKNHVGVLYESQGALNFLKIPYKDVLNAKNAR

[3] = target: T3, AmGH181 (Akkermansia muciniphila, UniProt B2ULI1); test: X-ray crystal structure; also inhibition of 4MU-Neu5Ac hydrolysis; assay type: biochemical; parameters: gene Amuc_1547; mature peptide lacking the signal peptide
T3 sequence (B2ULI1 23-595): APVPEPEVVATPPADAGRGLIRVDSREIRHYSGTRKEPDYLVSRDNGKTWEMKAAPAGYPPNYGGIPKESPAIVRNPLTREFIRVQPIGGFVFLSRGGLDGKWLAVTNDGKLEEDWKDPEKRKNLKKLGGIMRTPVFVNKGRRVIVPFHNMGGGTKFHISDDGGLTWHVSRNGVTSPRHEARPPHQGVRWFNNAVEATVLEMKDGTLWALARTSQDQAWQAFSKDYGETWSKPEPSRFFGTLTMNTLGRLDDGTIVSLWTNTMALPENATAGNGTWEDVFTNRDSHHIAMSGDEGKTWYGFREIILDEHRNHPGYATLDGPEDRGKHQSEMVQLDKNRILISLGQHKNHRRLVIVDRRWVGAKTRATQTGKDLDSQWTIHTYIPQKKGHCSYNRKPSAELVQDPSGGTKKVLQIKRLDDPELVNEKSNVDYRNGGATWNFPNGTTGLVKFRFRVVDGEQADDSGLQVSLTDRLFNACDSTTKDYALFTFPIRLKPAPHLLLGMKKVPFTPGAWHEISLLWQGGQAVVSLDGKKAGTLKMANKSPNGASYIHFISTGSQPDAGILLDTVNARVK
Text: X-ray crystal structure; also inhibition of 4MU-Neu5Ac hydrolysis on AmGH181 | three structures of AmGH181: in ligand free form, bound with the transition-state inhibitor DANA

[4] = target: T3, AmGH181; parameters: gene Amuc_1547

CC(=O)N[C@H]1[C@H]([C@H](O)[C@H](O)CO)OC(C(=O)O)=C[C@@H]1O [DANA, N-Acetyl-2,3-dehydro-2-deoxyneuraminic acid]
IC50 [1]: < 200 µM
IC50 [2]: < 200 µM
IC50 [3]: < 200 µM

CC(=O)N[C@H]1C(O)O[C@H](CO)[C@H](O)[C@@H]1O[C@@H]1O[C@H](CO)[C@H](O)[C@H](O)[C@H]1O (stereo partly shown) [GNB, Galacto-N-biose]
X-ray crystal structure (ternary with DANA) [4]: bound to both the T-antigen disaccharide (GNB) and DANA, which provides a mimic for a transition state-like substrate complex
